The text below walks through data of BindingDB's records for doi:10.1021/acs.jmedchem.6b00108 (University of Montreal, 2016).

Where a SMILES comes first, the peptide text is derived from it.

Experiment [1] is described as follows: Antagonist activity at UT2 receptor in Sprague-Dawley rat thoracic aorta ring assessed as pEC50 for URP -induced aortic contractions at 10^-5M relative to KCl.
Experiment [2] can be described thus: Antagonist activity at UT2 receptor in Sprague-Dawley rat thoracic aorta ring assessed as pEC50 for hU2-induced aortic contractions at 10^-5M relative to KCl.

Consider `CC(C)[C@H](NC(=O)[C@@H]1CSSC[C@H](NC(=O)[C@@H](N)CC(=O)O)C(=O)N[C@@H](Cc2ccccc2)C(=O)NN(Cc2cccc3ccccc23)S(=O)(=O)N[C@@H](CCCCN)C(=O)N[C@@H](Cc2ccc(O)cc2)C(=O)N1)C(=O)O`, for which the concentration giving a half-maximal response (EC50) in experiment [1] stood at 7.9 nM; in experiment [2], 5 nM.
`CC(C)[C@H](NC(=O)[C@@H]1CSSC[C@H](NC(=O)[C@@H](N)CC(=O)O)C(=O)N[C@@H](Cc2ccccc2)C(=O)NN(Cc2ccccc2)S(=O)(=O)N[C@@H](CCCCN)C(=O)N[C@@H](Cc2ccc(O)cc2)C(=O)N1)C(=O)O` (HELM PEPTIDE1{D.C.F.[NCCCC[C@H](NS(=O)(=O)N(Cc1ccccc1)N[*:1])C(=O)[*:2]].Y.C.V}$PEPTIDE1,PEPTIDE1,2:R3-6:R3$$$V2.0): the EC50 in experiment [1] was 3.5 nM; in experiment [2], 4.8 nM.
For `CC(C)[C@H](NC(=O)[C@@H]1CSSC[C@H](NC(=O)[C@@H](N)CC(=O)O)C(=O)N[C@@H](Cc2ccccc2)C(=O)NN(Cc2ccc3ccccc3c2)S(=O)(=O)N[C@@H](CCCCN)C(=O)N[C@@H](Cc2ccc(O)cc2)C(=O)N1)C(=O)O`, in that order: 9.5 nM and 15 nM.
For the compound `CC(C)[C@H](NC(=O)[C@@H]1CSSC[C@H](NC(=O)[C@@H](N)CC(=O)O)C(=O)N[C@@H](Cc2ccccc2)C(=O)N[C@@H](Cc2c[nH]c3ccccc23)C(=O)NN(CCCCN(C)C)S(=O)(=O)N[C@@H](Cc2ccc(O)cc2)C(=O)N1)C(=O)O` (HELM PEPTIDE1{D.C.F.W.[CN(C)CCCCN(N[*:1])S(=O)(=O)N[C@@H](Cc1ccc(O)cc1)C(=O)[*:2]].C.V}$PEPTIDE1,PEPTIDE1,2:R3-6:R3$$$V2.0), the EC50 came to 3.7 nM in experiment [1] and 1.6 nM in experiment [2].
